Assay type in all cases: cell-based
One assay relates to S. aureus UC-76 SA-1. Description: in vitro antibacterial activity (MIC), S. aureus. Conditions: for MIC90: Staphylococcus aureus, UC76, S. aureus UC-76 SA-1. The source says:
(§1) The in vitro antibacterial activity of the compounds of the present invention may be assessed by following procedures recommended in (1) National Committee for Clinical Laboratory Standards (January 2003), Methods for dilution antimicrobial tests for bacteria that grow aerobically, Approved Standard (6th ed), M7-A6, NCCLS, Wayne, Pa.; (2) National Committee for Clinical Laboratory Standards (March 2001), Methods for antimicrobial susceptibility testing of anaerobic bacteria, Approved Standard (5th ed), M11-A4, NCCLS, Wayne, Pa.; (3) National Committee for Clinical Laboratory Standards (Jan. 2003), MIC testing supplemental tables, M100-S13 (for use with M7-A6), NCCLS, Wayne, Pa.; and (4) Murray P R, Baron E J, Jorgensen J H, et al. Manual of Clinical Microbiology (8th ed) Washington, D.C.: American Society for Microbiology Press, 2003. The MIC value is the lowest concentration of drug which prevented macroscopically visible growth under the conditions of the test.

The next assay relates to S. pneumoniae SV1 SP-3. Description: in vitro antibacterial activity (MIC), S. pneumoniae. Conditions: Streptococcus pneumoniae, SV1SP3.
Description: as §1

For a further assay, the system named is E. faecalis MGH-2 EF 1-1. In words: in vitro antibacterial activity (MIC), E. faecalis. As to conditions: Enterococcus faecalis, MGH2EF11.
Description: as §1

In brackets after ≈: the same amount, converted by molar mass.

The source of these data is US20080262056A1, “Oxindole Oxazolidinones as Antibacterial Agents” (Pfizer Inc, priority 2004, published 2008).

In general, MIC90 refers to an inhibitory concentration at the 90% level, which refers to growth in some studies and to a panel of isolates in others. Read a low MIC90 as higher susceptibility.

Consider `CCCN1C(=O)Cc2cc(N3C[C@H](CNC(C)=O)OC3=O)ccc21` [Example 17, (S)—N-[2-oxo-3-(2-oxo-1-propyl-2,3-dihydro-1H-indol-5-yl)-oxazolidin-5-ylmethyl]-acetamide], for which the results for the MIC90 with S. aureus UC-76 SA-1, against S. pneumoniae SV1 SP-3 and against E. faecalis MGH-2 EF 1-1 were 4 µg/mL (≈ 12.1 µM), 2 µg/mL (≈ 6.04 µM) and 4 µg/mL (≈ 12.1 µM), respectively.
Turning to `CC(=O)NC[C@H]1CN(c2ccc3c(c2)CC(=O)N3C(C)CF)C(=O)O1` (stereo partly drawn) [Example 28, (S)—N-{3-[1-(2-fluoro-1-methyl-ethyl)-2-oxo-2,3-dihydro-1H-indol-5-yl]-2-oxo-oxazolidin-5-ylmethyl}-acetamide], the MIC90 turned out to be 8 µg/mL (≈ 22.9 µM) in the assay with S. aureus UC-76 SA-1, 2 µg/mL (≈ 5.72 µM) with S. pneumoniae SV1 SP-3 and 4 µg/mL (≈ 11.4 µM) with E. faecalis MGH-2 EF 1-1.
As for `CCC(=O)NC[C@H]1CN(c2ccc3c(c2)CC(=O)N3CC2CC2)C(=O)O1` [Example 27, (S)—N-[3-(1-cyclopropylmethyl-2-oxo-2,3-dihydro-1H-indol-5-yl)-2-oxo-oxazolidin-5-ylmethyl]-propionamide], the figures for the MIC90 against S. aureus UC-76 SA-1, in the assay with S. pneumoniae SV1 SP-3 and against E. faecalis MGH-2 EF 1-1 were 8 µg/mL (≈ 22.4 µM), 4 µg/mL (≈ 11.2 µM) and 8 µg/mL (≈ 22.4 µM), respectively.
For `CCCN1C(=O)Cc2cc(N3C[C@H](CNC(=O)CC)OC3=O)cc(F)c21` [Example 20, (S)—N-[3-(7-Fluoro-2-oxo-1-propyl-2,3-dihydro-1H-indol-5-yl)-2-oxo-oxazolidin-5-ylmethyl]-propionamide], the values for the MIC90 in the assay on S. aureus UC-76 SA-1, against S. pneumoniae SV1 SP-3 and in the assay on E. faecalis MGH-2 EF 1-1 were 8 µg/mL (≈ 22 µM), 4 µg/mL (≈ 11 µM) and 8 µg/mL (≈ 22 µM), respectively.
Turning to `CCC(=O)NC[C@H]1CN(c2ccc3c(c2)CC(=O)N3CC)C(=O)O1` [Example 6, (S)—N-[3-(1-ethyl-2-oxo-2,3-dihydro-1H-indol-5-yl)-2-oxo-oxazolidin-5-ylmethyl]-propionamide], the MIC90 against S. aureus UC-76 SA-1 was 4 µg/mL (≈ 12.1 µM); against S. pneumoniae SV1 SP-3, 2 µg/mL (≈ 6.04 µM); against E. faecalis MGH-2 EF 1-1 it was 2 µg/mL (≈ 6.04 µM).
For `CCC(=O)NC[C@H]1CN(c2cc(F)c3c(c2)CC(=O)N3C)C(=O)O1` [Example 4, (S)—N-[3-(7-fluoro-1-methyl-2-oxo-2,3-dihydro-1H-indol-5-yl)-2-oxo-oxazolidin-5-ylmethyl]-propionamide], the values for the MIC90 in the assay with S. aureus UC-76 SA-1, in the assay with S. pneumoniae SV1 SP-3 and against E. faecalis MGH-2 EF 1-1 were 8 µg/mL (≈ 23.9 µM), 2 µg/mL (≈ 5.96 µM) and 4 µg/mL (≈ 11.9 µM), respectively.
`CCC(=O)NC[C@H]1CN(c2cc(F)c3c(c2)CC(=O)N3C(C)C)C(=O)O1` [Example 16, (S)—N-[3-(7-fluoro-1-isopropyl-2-oxo-2,3-dihydro-1H-indol-5-yl)-2-oxo-oxazolidin-5-ylmethyl]-propionamide]: the MIC90 in the assay on S. aureus UC-76 SA-1 amounted to 8 µg/mL (≈ 22 µM); against S. pneumoniae SV1 SP-3, 4 µg/mL (≈ 11 µM); against E. faecalis MGH-2 EF 1-1, 4 µg/mL (≈ 11 µM).
In the case of `CCC(=O)NC[C@H]1CN(c2ccc3c(c2)CC(=O)N3C(C)C)C(=O)O1` [Example 14, (S)—N-[3-(1-isopropyl-2-oxo-2,3-dihydro-1H-indol-5-yl)-2-oxo-oxazolidin-5-ylmethyl]-propionamide], the MIC90 with S. aureus UC-76 SA-1 is 8 µg/mL (≈ 23.2 µM); in the assay on S. pneumoniae SV1 SP-3 it was 4 µg/mL (≈ 11.6 µM); in the assay on E. faecalis MGH-2 EF 1-1, 8 µg/mL (≈ 23.2 µM).
On to `CCN1C(=O)Cc2cc(N3C[C@H](CNC(C)=O)OC3=O)ccc21` [Example 5, (S)—N-[3-(1-ethyl-2-oxo-2,3-dihydro-1H-indol-5-yl)-2-oxo-oxazolidin-5-ylmethyl]-acetamide], for which the MIC90 in the assay on S. aureus UC-76 SA-1 was determined as 8 µg/mL (≈ 25.2 µM); against S. pneumoniae SV1 SP-3, 2 µg/mL (≈ 6.3 µM); in the assay with E. faecalis MGH-2 EF 1-1, 8 µg/mL (≈ 25.2 µM).
Regarding `CC(=O)NC[C@H]1CN(c2cc(F)c3c(c2)CC(=O)N3CCF)C(=O)O1` [Example 11, (S)—N-{3-[7-fluoro-1-(2-fluoro-ethyl)-2-oxo-2,3-dihydro-1H-indol-5-yl]-2-oxo-oxazolidin-5-ylmethyl}-acetamide], the MIC90 was 4 µg/mL (≈ 11.3 µM) against S. aureus UC-76 SA-1, 1 µg/mL (≈ 2.83 µM) in the assay on S. pneumoniae SV1 SP-3 and 2 µg/mL (≈ 5.66 µM) in the assay on E. faecalis MGH-2 EF 1-1.
On the same counts, the results for `CC(=O)NC[C@H]1CN(c2ccc3c(c2)CC(=O)N3CC2CC2)C(=O)O1` [Example 26, (S)—N-[3-(1-cyclopropylmethyl-2-oxo-2,3-dihydro-1H-indol-5-yl)-2-oxo-oxazolidin-5-ylmethyl]-acetamide] are 8 µg/mL (≈ 23.3 µM), 4 µg/mL (≈ 11.6 µM) and 4 µg/mL (≈ 11.6 µM).
As to `CCC(=O)NC[C@H]1CN(c2cc(F)c3c(c2)CC(=O)N3CCF)C(=O)O1` [Example 12, (S)—N-{3-[7-fluoro-1-(2-fluoro-ethyl)-2-oxo-2,3-dihydro-1H-indol-5-yl]-2-oxo-oxazolidin-5-ylmethyl}-propionamide], the results for the MIC90 against S. aureus UC-76 SA-1, against S. pneumoniae SV1 SP-3 and against E. faecalis MGH-2 EF 1-1 were 8 µg/mL (≈ 21.8 µM), 4 µg/mL (≈ 10.9 µM) and 4 µg/mL (≈ 10.9 µM), respectively.
On to `CCC(C)N1C(=O)Cc2cc(N3C[C@H](CNC(C)=O)OC3=O)ccc21` (stereo partly drawn) [Example 24, (S)—N-[3-(1-sec-butyl-2-oxo-2,3-dihydro-1H-indol-5-yl)-2-oxo-oxazolidin-5-ylmethyl]-acetamide], for which the MIC90 against S. aureus UC-76 SA-1 was 8 µg/mL (≈ 23.2 µM); against S. pneumoniae SV1 SP-3 it was 4 µg/mL (≈ 11.6 µM); with E. faecalis MGH-2 EF 1-1, 4 µg/mL (≈ 11.6 µM).
Take `CCC(=O)NC[C@H]1CN(c2ccc3c(c2)CC(=O)N3C2CC2)C(=O)O1` [Example 22, (S)—N-[3-(1-cyclopropyl-2-oxo-2,3-dihydro-1H-indol-5-yl)-2-oxo-oxazolidin-5-ylmethyl]-propionamide]: the MIC90 with S. aureus UC-76 SA-1 came to 8 µg/mL (≈ 23.3 µM); in the assay with S. pneumoniae SV1 SP-3, 4 µg/mL (≈ 11.6 µM); against E. faecalis MGH-2 EF 1-1, 4 µg/mL (≈ 11.6 µM).
Consider `CCC(=O)NC[C@H]1CN(c2ccc3c(c2)CC(=O)N3CCF)C(=O)O1` [Example 10, (S)—N-{3-[1-(2-fluoro-ethyl)-2-oxo-2,3-dihydro-1H-indol-5-yl]-2-oxo-oxazolidin-5-ylmethyl}-propionamide], for which, in the assay with S. aureus UC-76 SA-1 (S. aureus UC-76 SA-1), the “in vitro antibacterial activity MIC90” value stood at 4 µg/mL. For the same compound, the values for the MIC90 in the assay with S. aureus UC-76 SA-1, with S. pneumoniae SV1 SP-3 and in the assay with E. faecalis MGH-2 EF 1-1 were 8 µg/mL (≈ 22.9 µM), 2 µg/mL (≈ 5.72 µM) and 2 µg/mL (≈ 5.72 µM), respectively.
On to `CC(=O)NC[C@H]1CN(c2cc(F)c3c(c2)CC(=O)N3C)C(=O)O1` [Example 3, N-[3-(7-fluoro-1-methyl-2-oxo-2,3-dihydro-1H-indol-5-yl)-2-oxo-oxazolidin-5-ylmethyl]-acetamide], for which the MIC90 amounted to 4 µg/mL (≈ 12.4 µM) against S. aureus UC-76 SA-1, 2 µg/mL (≈ 6.22 µM) in the assay with S. pneumoniae SV1 SP-3 and 4 µg/mL (≈ 12.4 µM) in the assay on E. faecalis MGH-2 EF 1-1.
In the case of `CC(=O)NC[C@H]1CN(c2cc(F)c3c(c2)CC(=O)N3C2CC2)C(=O)O1` [Example 23, (S)—N-[3-(1-cyclopropyl-7-fluoro-2-oxo-2,3-dihydro-1H-indol-5-yl)-2-oxo-oxazolidin-5-ylmethyl]-acetamide], the values for the MIC90 against S. aureus UC-76 SA-1, against S. pneumoniae SV1 SP-3 and in the assay with E. faecalis MGH-2 EF 1-1 were 8 µg/mL (≈ 23 µM), 4 µg/mL (≈ 11.5 µM) and 4 µg/mL (≈ 11.5 µM), respectively.
Turning to `CC(=O)NC[C@H]1CN(c2ccc3c(c2)CC(=O)N3C)C(=O)O1` [Example 1, (S)—N-[3-(1-methyl-2-oxo-2,3-dihydro-1H-indol-5-yl)-2-oxo-oxazolidin-5-ylmethyl]-acetamide], the MIC90 in the assay with S. aureus UC-76 SA-1 was found to be 8 µg/mL (≈ 26.4 µM); against S. pneumoniae SV1 SP-3, 1 µg/mL (≈ 3.3 µM); against E. faecalis MGH-2 EF 1-1 it was 2 µg/mL (≈ 6.59 µM).
For the compound `CC(=O)NC[C@H]1CN(c2ccc3c(c2)CC(=O)N3C2CC2)C(=O)O1` [Example 21, (S)—N-[3-(1-cyclopropyl-2-oxo-2,3-dihydro-1H-indol-5-yl)-2-oxo-oxazolidin-5-ylmethyl]-acetamide], the MIC90 with S. aureus UC-76 SA-1 stood at 8 µg/mL (≈ 24.3 µM); against S. pneumoniae SV1 SP-3 it was 2 µg/mL (≈ 6.07 µM); against E. faecalis MGH-2 EF 1-1, 4 µg/mL (≈ 12.1 µM).
On to `CCN1C(=O)Cc2cc(N3C[C@H](CNC(C)=O)OC3=O)cc(F)c21` [Example 7, (S)—N-[3-(1-ethyl-7-fluoro-2-oxo-2,3-dihydro-1H-indol-5-yl)-2-oxo-oxazolidin-5-ylmethyl]-acetamide], for which the MIC90 in the assay on S. aureus UC-76 SA-1, in the assay with S. pneumoniae SV1 SP-3 and in the assay on E. faecalis MGH-2 EF 1-1 was 2 µg/mL (≈ 5.96 µM) throughout.
In the case of `CCC(=O)NC[C@H]1CN(c2ccc3c(c2)CC(=O)N3C)C(=O)O1` [Example 2, (S)—N-[3-(1-methyl-2-oxo-2,3-dihydro-1H-indol-5-yl)-2-oxo-oxazolidin-5-ylmethyl]-propionamide], the MIC90 against S. aureus UC-76 SA-1 worked out at 8 µg/mL (≈ 25.2 µM); in the assay with S. pneumoniae SV1 SP-3, 1 µg/mL (≈ 3.15 µM); against E. faecalis MGH-2 EF 1-1 it was 2 µg/mL (≈ 6.3 µM).
On the same counts, the results for `CC(=O)NC[C@H]1CN(c2cc(F)c3c(c2)CC(=O)N3CC2CC2)C(=O)O1` [Example 29, (S)—N-[3-(1-cyclopropylmethyl-7-fluoro-2-oxo-2,3-dihydro-1H-indol-5-yl)-2-oxo-oxazolidin-5-ylmethyl]-acetamide] are 2 µg/mL (≈ 5.53 µM), 2 µg/mL (≈ 5.53 µM) and 2 µg/mL (≈ 5.53 µM).
In the case of `CCC(=O)NC[C@H]1CN(c2cc(F)c3c(c2)CC(=O)N3CC)C(=O)O1` [Example 8, (S)—N-[3-(1-ethyl-7-fluoro-2-oxo-2,3-dihydro-1H-indol-5-yl)-2-oxo-oxazolidin-5-ylmethyl]-propionamide], the MIC90 turned out to be 4 µg/mL (≈ 11.4 µM) with S. aureus UC-76 SA-1, 4 µg/mL (≈ 11.4 µM) against S. pneumoniae SV1 SP-3 and 2 µg/mL (≈ 5.72 µM) in the assay on E. faecalis MGH-2 EF 1-1.
`CC(=O)NC[C@H]1CN(c2ccc3c(c2)CC(=O)N3C(C)C)C(=O)O1` [Example 13, (S)—N-[3-(1-isopropyl-2-oxo-2,3-dihydro-1H-indol-5-yl)-2-oxo-oxazolidin-5-ylmethyl]-acetamide]: the MIC90 with S. aureus UC-76 SA-1 stood at 4 µg/mL (≈ 12.1 µM); in the assay with S. pneumoniae SV1 SP-3 it was 2 µg/mL (≈ 6.04 µM); against E. faecalis MGH-2 EF 1-1, 4 µg/mL (≈ 12.1 µM).
Take `CCCN1C(=O)Cc2cc(N3C[C@H](CNC(=O)CC)OC3=O)ccc21` [Example 18, (S)—N-[2-oxo-3-(2-oxo-1-propyl-2,3-dihydro-1H-indol-5-yl)-oxazolidin-5-ylmethyl]-propionamide]: the MIC90 in the assay with S. aureus UC-76 SA-1 came out at 8 µg/mL (≈ 23.2 µM); against S. pneumoniae SV1 SP-3 it was 4 µg/mL (≈ 11.6 µM); in the assay with E. faecalis MGH-2 EF 1-1 it was 8 µg/mL (≈ 23.2 µM).
